Data published in patent US6605145B1, “Alkylformamide surfactants” (Air Products and Chemicals, Inc., priority 1999, dated 2003).

Assays:
Assay type in all cases: physicochemical
[1] = Solubility limit in water from plot of ln(conc.) vs surface tension at 0.1 b/s
From the text: A plot of In(conc.) vs surface tension observed at 0.1 b/s was used to determine that the solubility limit of this material is 0.1 wt %.

[2] = Dynamic surface tension of aqueous solutions, maximum bubble pressure method
From the text: where R is a C5 to C11 alkyl group, provided that the organic compound is not an azole derivative fungicide. […] The maximum-bubble-pressure method of measuring surface tension is described in Langmuir 1986, 2, 428-432, which is incorporated by reference.
In the following Examples dynamic surface tension data were obtained for aqueous solutions of various compounds using the maximum bubble pressure method at bubble rates from 0.1 bubbles/second (b/s) to 20 b/s. […] In practical terms, high bubble rates correspond to high printing speeds in lithographic printing, high spray or roller velocities in coating applications, and rapid application rates for agricultural products.

[3] = Foam test based upon ASTM D 1173-53
Procedure: The foaming properties of 0.1 wt % solutions of the N-octylpyrrolidone and the alkylformamide surfactants of this invention were examined using a procedure based upon ASTM D 1173-53. In this test, a 0.1 wt % solution of the surfactant is added from an elevated foam pipette to a foam receiver containing the same solution. The foam height is measured at the completion of the addition (“Initial Foam Height”) and the time required for the foam to dissipate at the air-liquid interface (“Time to 0 Foam”) is recorded. This test provides a comparison between the foaming characteristics of various surfactant solutions. In general, in coatings, inks, and agricultural formulations, foam is undesirable because it complicates handling and can lead to coating and print defects, and to inefficient application of agricultural materials.

| SMILES | solubility limit [1] | Dynamic Surface Tension ([2]; 0.03 wt % in water, 0.1 b/s) | Dynamic Surface Tension ([2]; 0.03 wt % in water, 1 b/s) | Dynamic Surface Tension ([2]; 0.03 wt % in water, 6 b/s) | Dynamic Surface Tension ([2]; 0.03 wt % in water, 15 b/s) | Dynamic Surface Tension ([2]; 0.03 wt % in water, 20 b/s) | Dynamic Surface Tension ([2]; 0.07 wt % in water, 0.1 b/s) | Dynamic Surface Tension ([2]; 0.07 wt % in water, 1 b/s) | Dynamic Surface Tension ([2]; 0.07 wt % in water, 6 b/s) | Dynamic Surface Tension ([2]; 0.07 wt % in water, 15 b/s) | Dynamic Surface Tension ([2]; 0.07 wt % in water, 20 b/s) | Dynamic Surface Tension ([2]; 0.1 wt % in water, 1 b/s) | Dynamic Surface Tension ([2]; 0.1 wt % in water, 6 b/s) | Dynamic Surface Tension ([2]; 0.1 wt % in water, 15 b/s) | Initial Foam Height ([3]; 0.1 wt % solution) | Time to 0 Foam ([3]; 0.1 wt % solution) | other results |
| --- | --- | --- | --- | --- | --- | --- | --- | --- | --- | --- | --- | --- | --- | --- | --- | --- | --- |
| CCCCC(CC)CNC=O (stereo not shown) [2-EHF, 2-ethylhexylformamide] | 0.2 wt % | 51.1 dyne/cm | 53.0 dyne/cm | 57.0 dyne/cm | 60.1 dyne/cm | 60.3 dyne/cm | 42.8 dyne/cm | 43.8 dyne/cm | 46.0 dyne/cm | 48.3 dyne/cm | 49.1 dyne/cm | 39.9 dyne/cm | 41.6 dyne/cm | 43.5 dyne/cm |  |  | Dynamic Surface Tension ([2]; 0.05 wt % in water, 0.1 b/s): 45.9 dyne/cm; Dynamic Surface Tension ([2]; 0.05 wt % in water, 1 b/s): 47.2 dyne/cm; Dynamic Surface Tension ([2]; 0.05 wt % in water, 6 b/s): 49.9 dyne/cm; Dynamic Surface Tension ([2]; 0.05 wt % in water, 15 b/s): 52.6 dyne/cm; Dynamic Surface Tension ([2]; 0.05 wt % in water, 20 b/s): 53.3 dyne/cm; Dynamic Surface Tension ([2]; 0.1 wt % in water, 0.1 b/s): 39.1 dyne/cm; Dynamic Surface Tension ([2]; 0.1 wt % in water, 20 b/s): 44.2 dyne/cm; Dynamic Surface Tension ([2]; 0.2 wt % in water, 0.1 b/s): 32.1 dyne/cm; Dynamic Surface Tension ([2]; 0.2 wt % in water, 1 b/s): 32.4 dyne/cm; Dynamic Surface Tension ([2]; 0.2 wt % in water, 6 b/s): 33.3 dyne/cm; Dynamic Surface Tension ([2]; 0.2 wt % in water, 15 b/s): 34.9 dyne/cm; Dynamic Surface Tension ([2]; 0.2 wt % in water, 20 b/s): 35.5 dyne/cm |
| CCCCCCCCN1CCCC1=O [N-n-Octylpyrrolidone, reference compound] |  | 46.5 dyne/cm | 49.3 dyne/cm | 54.4 dyne/cm | 58.7 dyne/cm | 59.6 dyne/cm | 35.2 dyne/cm | 36.6 dyne/cm | 39.6 dyne/cm | 43.0 dyne/cm | 43.9 dyne/cm | 31.0 dyne/cm | 33.4 dyne/cm | 36.5 dyne/cm | 4.0 cm |  | cm Foam after 5 min ([3]; 0.1 wt % solution): 1.0 cm; foaming of aqueous solutions (in words) ([3]; aqueous solutions): quite foamy; Dynamic Surface Tension ([2]; 0.003 wt % in water, 0.1 b/s): 65.1 dyne/cm; Dynamic Surface Tension ([2]; 0.003 wt % in water, 1 b/s): 68.6 dyne/cm; Dynamic Surface Tension ([2]; 0.003 wt % in water, 6 b/s): 70.8 dyne/cm; Dynamic Surface Tension ([2]; 0.003 wt % in water, 15 b/s): 71.4 dyne/cm; Dynamic Surface Tension ([2]; 0.003 wt % in water, 20 b/s): 71.1 dyne/cm; Dynamic Surface Tension ([2]; 0.1 wt % in water, 0.1 b/s): 29.9 dyne/cm; Dynamic Surface Tension ([2]; 0.1 wt % in water, 1 b/s, listed as n-octylpyrrolidone): below 30 dyne/cm; Dynamic Surface Tension ([2]; 0.1 wt % in water, 20 b/s): 37.2 dyne/cm; Dynamic Surface Tension ([2]; 0.1 wt % in water, 20 b/s, listed as n-octylpyrrolidone): below 40 dyne/cm; Dynamic Surface Tension ([2]; 0.21 wt % in water, 0.1 b/s): 27.6 dyne/cm; Dynamic Surface Tension ([2]; 0.21 wt % in water, 1 b/s): 27.8 dyne/cm; Dynamic Surface Tension ([2]; 0.21 wt % in water, 6 b/s): 28.4 dyne/cm; Dynamic Surface Tension ([2]; 0.21 wt % in water, 15 b/s): 30.0 dyne/cm; Dynamic Surface Tension ([2]; 0.21 wt % in water, 20 b/s): 30.6 dyne/cm |
| CCCCCCCCNC=O [drawing 13, n-octylformamide] |  |  |  |  |  |  |  |  |  |  |  |  |  |  | 0.9 cm | 5 s |  |
| CCCCC(CC)CNC=O (stereo not shown) [drawing 14, 2-ethylhexylformamide] |  |  |  |  |  |  |  |  |  |  |  |  |  |  | 0.5 cm | 4 s |  |
| CCCCCCCCCCNC=O [drawing 16, n-decylformamide] |  |  |  |  |  |  |  |  |  |  |  |  |  |  | 2.4 cm | 12 s |  |
| CCCCCCCCCCNC=O [n-DF, n-decylformamide] | 0.01 wt % |  |  |  |  |  |  |  |  |  |  |  |  |  |  |  | Dynamic Surface Tension ([2]; 0.005 wt % in water, 0.1 b/s): 53.4 dyne/cm; Dynamic Surface Tension ([2]; 0.005 wt % in water, 1 b/s): 67.1 dyne/cm; Dynamic Surface Tension ([2]; 0.005 wt % in water, 6 b/s): 70.6 dyne/cm; Dynamic Surface Tension ([2]; 0.005 wt % in water, 15 b/s): 72.5 dyne/cm; Dynamic Surface Tension ([2]; 0.005 wt % in water, 20 b/s): 73.1 dyne/cm; Dynamic Surface Tension ([2]; 0.007 wt % in water, 0.1 b/s): 36.3 dyne/cm; Dynamic Surface Tension ([2]; 0.007 wt % in water, 1 b/s): 59.2 dyne/cm; Dynamic Surface Tension ([2]; 0.007 wt % in water, 6 b/s): 70.3 dyne/cm; Dynamic Surface Tension ([2]; 0.007 wt % in water, 15 b/s): 72.3 dyne/cm; Dynamic Surface Tension ([2]; 0.007 wt % in water, 20 b/s): 72.9 dyne/cm; Dynamic Surface Tension ([2]; 0.01 wt % in water, 0.1 b/s): 32.4 dyne/cm; Dynamic Surface Tension ([2]; 0.01 wt % in water, 1 b/s): 55.4 dyne/cm; Dynamic Surface Tension ([2]; 0.01 wt % in water, 6 b/s): 69.1 dyne/cm; Dynamic Surface Tension ([2]; 0.01 wt % in water, 15 b/s): 72.5 dyne/cm; Dynamic Surface Tension ([2]; 0.01 wt % in water, 20 b/s): 72.8 dyne/cm |
| CCCCCCCCNC=O [n-OF, n-octylformamide] | 0.1 wt % | 42.8 dyne/cm | 46.1 dyne/cm | 52.2 dyne/cm | 58.5 dyne/cm | 60.4 dyne/cm | 30.9 dyne/cm | 32.5 dyne/cm | 36.3 dyne/cm | 41.5 dyne/cm | 43.7 dyne/cm | 26.6 dyne/cm | 28.7 dyne/cm | 34.4 dyne/cm |  |  | Dynamic Surface Tension ([2]; 0.05 wt % in water, 0.1 b/s): 35.6 dyne/cm; Dynamic Surface Tension ([2]; 0.05 wt % in water, 1 b/s): 37.7 dyne/cm; Dynamic Surface Tension ([2]; 0.05 wt % in water, 6 b/s): 42.5 dyne/cm; Dynamic Surface Tension ([2]; 0.05 wt % in water, 15 b/s): 48.6 dyne/cm; Dynamic Surface Tension ([2]; 0.05 wt % in water, 20 b/s): 50.5 dyne/cm |
